Laboratory results taken from patent publication US20090149531A1, “CHEMICAL COMPOSITION DERIVED FROM P-HYDROXYPHENYL PROPIONIC ACID FOR THE TREATMENT OF PSORIASIS” (APOTEKNOS PARA LA PIEL, S.L., priority 2007, published 2009).
Where “and” joins values, the source holds several entries; their conditions need not be identical. Equal values may be shown once.

Key:
[1] = Permeability study, pig ear skin in Franz cell; format: in vitro ADME; conditions: hydroalcoholic solution 63.6 μg/ml or 6.36 μg/ml
Description: Skin from pig ears was used as the experimental system to which a hydroalcoholic solution of compound A 6.36×10^−2 mg/ml and 6.36×10^−3 mg/ml was applied, the reference product being a control hydroalcoholic solution (without compound A). For this study 4 different hydroalcoholic solutions were prepared. The first included 6.36 μg/ml of compound A, the second included 63.6 μg/ml, and the third and fourth were control solutions without compound A. All the preparations were tested on the pig ear skin experimental system. Samples were taken in the diffuser compartment at 6 different times (0, 1, 2, 6, 12 and 24 hours). All the samples (recipients) were quantified by HPLC. FIG. 1. Concentration of compound A in the recipient of the Franz cell for a sample with a concentration of 63.6 μg/ml of A. FIG. 2. Concentration of compound A in the recipient of the Franz cell for a sample with a concentration of 6.36 μg/ml of A.

[2] = test system: Salmonella typhimurium TA98; assay: Ames test without external metabolisation, TA98; format: cell-based; conditions: no metabolic activation; for Colonies per plate: individual plates 1-4, A; for Colonies per plate / Colonies per plate, Mean: 48 hours; for Mutagenic Ind,: relative to H+/B+
Description: (§1) The mutagenic activity of compound A was evaluated using the Ames test without external metabolisation. The Ames test is based on the use of bacterial strains to detect mutations in the DNA in vitro using bacterial strains that make it possible to detect types of damage to the genome.
(§2) Bacteria of 4 strains of Salmonella typhimurium that are internationally recommended for this test, TA1535, TA1537, TA98 and TA100, were used. The test was carried out according to highly standardised protocols. […] The test was carried out without external metabolic activation. The plates were incubated at 37° C. and the reverting colonies were counted after 48 hours.

[3] = test system: Salmonella typhimurium TA100; assay: Ames test without external metabolisation, TA100; format: cell-based; conditions: no metabolic activation; for Colonies per plate: individual plates 1-4, A; for Colonies per plate / Colonies per plate, Mean: 48 hours; for Mutagenic Ind,: relative to H+/B+
Description: as §1, §2

[4] = test system: Salmonella typhimurium TA1535; assay: Ames test without external metabolisation, TA1535; format: cell-based; conditions: no metabolic activation; for Colonies per plate: individual plates 1-4, A; for Colonies per plate / Colonies per plate, Mean: 48 hours; for Mutagenic Ind,: relative to H+/B+
Description: as §1, §2

[5] = test system: cell hyperproliferation in hairless rats; assay: Model of desquamation in hairless rats: corneous material extracted; format: in vivo; conditions: for amount of corneous material extracted, total sum of the right and left flanks, Portal No, 1 / amount of corneous material extracted, total sum of the right and left flanks, Portal No, 2 / amount of corneous material extracted, total sum of the right and left flanks, Portal No, 3 / amount of corneous material extracted, total sum of the right and left flanks, Portal No, 4 / amount of corneous material extracted, total sum of the right and left flanks, Portal No, 5 / amount of corneous material extracted, total sum of the right and left flanks, Portal No, 6: day 11
Description: The activity of compound A on cell hyperproliferation in hairless rats was evaluated using the model of desquamation in hairless rats described in the publication: Bräutigam, M., Hübner, H., Rach, P., Thieroff-Ekerdi, R. “Effects of Calcipotriol (MC 903) and Calcitriol after Topical Application on the Skin of Hairless Rats”, Skin Pharmacol 1992; 5:87-92.
(§3) To do this Calcitriol was used as the reference product at 0.01% and compound A was used as the test product at 1% and 0.1% (100 μg/cm^2 and 10 μg/cm^2, respectively). A Control Group was included, administered only with the vehicle (absolute ethanol).
The animals were randomly distributed into the following experimental groups:
(§4) The treatments were administered topically, once a day for 10 days (100 μg/side/animal). The animals were weighed on a daily basis throughout the study and the grade of erythema was evaluated (0=Absence of erythema, 1=Low grade erythema, 3=High grade erythema). On the last day of the study, day 11, the amount of corneous material extracted from the epidermis of the animals was evaluated.

[6] = Assessment of erythema in the hairless rat study; format: in vivo, hairless rats; conditions: 0=absence, 1=low grade, 3=high grade
Description: as §3, §4

[7] = Body weight in the hairless rat study; format: in vivo, hairless rats
Description: as §3, §4

[8] = Signs of toxicity and deaths in the hairless rat study; format: in vivo; conditions: compound A at 1%, topical
Description: A Control Group was included, administered only with the vehicle (absolute ethanol).
as §4

[9] = Compound A 0.1% (10 μg/cm^2) topical once a day for 10 days
[10] = Compound A 1% (100 μg/cm^2) topical once a day for 10 days
[11] = Compound A 0.1% topical once a day, Baseline
[12] = Compound A 0.1% topical once a day, Day 2
[13] = Compound A 0.1% topical once a day, Day 3
[14] = Compound A 0.1% topical once a day, Day 4
[15] = Compound A 0.1% topical once a day, Day 5
[16] = Compound A 0.1% topical once a day, Day 6
[17] = Compound A 0.1% topical once a day, Day 7
[18] = Compound A 0.1% topical once a day, Day 8
[19] = Compound A 0.1% topical once a day, Day 9
[20] = Compound A 0.1% topical once a day, Day 10
[21] = Compound A 0.1% topical once a day, Day 11
[22] = Compound A 1% topical once a day, Baseline
[23] = Compound A 1% topical once a day, Day 2
[24] = Compound A 1% topical once a day, Day 3
[25] = Compound A 1% topical once a day, Day 4
[26] = Compound A 1% topical once a day, Day 5
[27] = Compound A 1% topical once a day, Day 6
[28] = Compound A 1% topical once a day, Day 7
[29] = Compound A 1% topical once a day, Day 8
[30] = Compound A 1% topical once a day, Day 9
[31] = Compound A 1% topical once a day, Day 10
[32] = Compound A 1% topical once a day, Day 11

Structure (SMILES): C=C1C(=O)O[C@H](CCc2ccc(OC)cc2)[C@@H]1C [Compound A]
- amount of compound A dissolved in the recipient ([1]; samples at 0-24 hours, HPLC quantification limit): < 0.01 mg/mL
- transdermal flow through the skin of the pig ear ([1]; up to 24 hours): no transdermal flow
- Colonies per plate ([2]; Comp. A 10 μg/ml): 9 and 6 and 12 and 14
- Colonies per plate, Mean ([2]; Comp. A 10 μg/ml): 10.25
- Mutagenic Ind, ([2]; Comp. A 10 μg/ml): 1.079
- Colonies per plate ([2]; Comp. A 100 μg/ml): 15 and 12 (2×) and 8
- Colonies per plate, Mean ([2]; Comp. A 100 μg/ml): 11.75
- Mutagenic Ind, ([2]; Comp. A 100 μg/ml): 1.237
- Colonies per plate ([2]; Comp. A 1 mg/ml): 8 and 4 and 6 and 17
- Colonies per plate, Mean ([2]; Comp. A 1 mg/ml): 8.75
- Mutagenic Ind, ([2]; Comp. A 1 mg/ml): 0.9211
- Ames test result (mutagenic effects) ([2]; TA98, concentrations evaluated 10 μg/ml to 1 mg/ml): negative
- Colonies per plate ([3]; Comp. A 10 μg/ml): 38 and 41 and 44 and 54
- Colonies per plate, Mean ([3]; Comp. A 10 μg/ml): 44.25
- Mutagenic Ind, ([3]; Comp. A 10 μg/ml): 0.9124
- Colonies per plate ([3]; Comp. A 100 μg/ml): 45 and 35 and 31 and 51
- Colonies per plate, Mean ([3]; Comp. A 100 μg/ml): 40.5
- Mutagenic Ind, ([3]; Comp. A 100 μg/ml): 0.8351
- Colonies per plate ([3]; Comp. A 1 mg/ml): 52 and 37 and 38 and 40
- Colonies per plate, Mean ([3]; Comp. A 1 mg/ml): 44
- Mutagenic Ind, ([3]; Comp. A 1 mg/ml): 0.9072
- Ames test result (mutagenic effects) ([3]; TA100, concentrations evaluated 10 μg/ml to 1 mg/ml): negative
- Colonies per plate ([4]; Comp. A 10 μg/ml): 1 (2×) and 2 and 0
- Colonies per plate, Mean ([4]; Comp. A 10 μg/ml): 1
- Mutagenic Ind, ([4]; Comp. A 10 μg/ml): 0.5
- Colonies per plate ([4]; Comp. A 100 μg/ml): 1 (2×) and 2 and 0
- Colonies per plate, Mean ([4]; Comp. A 100 μg/ml): 1
- Mutagenic Ind, ([4]; Comp. A 100 μg/ml): 0.5
- Colonies per plate ([4]; Comp. A 1 mg/ml): 1 (2×) and 0 and 2
- Colonies per plate, Mean ([4]; Comp. A 1 mg/ml): 1
- Mutagenic Ind, ([4]; Comp. A 1 mg/ml): 0.5
- Ames test result (mutagenic effects) ([4]; TA1535, concentrations evaluated 10 μg/ml to 1 mg/ml): negative
- amount of corneous material extracted, total sum of the right and left flanks, Portal No, 1 [5, 9]: 3.1 ± 0.17 mg
- amount of corneous material extracted, total sum of the right and left flanks, Portal No, 2 [5, 9]: 1.7 ± 0.08 mg
- amount of corneous material extracted, total sum of the right and left flanks, Portal No, 3 [5, 9]: 1.1 ± 0.14 mg
- amount of corneous material extracted, total sum of the right and left flanks, Portal No, 4 [5, 9]: 1.1 ± 0.22 mg
- amount of corneous material extracted, total sum of the right and left flanks, Portal No, 5 [5, 9]: 1.1 ± 0.28 mg
- amount of corneous material extracted, total sum of the right and left flanks, Portal No, 6 [5, 9]: 8.1 ± 0.47 mg
- amount of corneous material extracted, total sum of the right and left flanks, Portal No, 1 [5, 10]: 3.1 ± 0.75 mg
- amount of corneous material extracted, total sum of the right and left flanks, Portal No, 2 [5, 10]: 2.7 ± 0.23 mg
- amount of corneous material extracted, total sum of the right and left flanks, Portal No, 3 [5, 10]: 2.0 ± 0.26 mg
- amount of corneous material extracted, total sum of the right and left flanks, Portal No, 4 [5, 10]: 1.4 ± 0.169 mg
- amount of corneous material extracted, total sum of the right and left flanks, Portal No, 5 [5, 10]: 1.4 ± 0.23 mg
- amount of corneous material extracted, total sum of the right and left flanks, Portal No, 6 [5, 10]: 12.6 ± 0.76 mg
- effect on the animals' skin (corneous material extracted) ([5]; compound A at 0.1%, topical): no effect
- amount of corneous material extracted in relation to the control group and compound A at 0.1% ([5]; compound A at 1%, Student Newman Keuls, p<0.01): statistically significant differences
- Assessment of erythema (mean grade) [6, 11]: 0.0 ± 0.00
- Assessment of erythema (mean grade) [6, 12]: 0.0 ± 0.00
- Assessment of erythema (mean grade) [6, 13]: 0.0 ± 0.00
- Assessment of erythema (mean grade) [6, 14]: 0.0 ± 0.00
- Assessment of erythema (mean grade) [6, 15]: 0.0 ± 0.00
- Assessment of erythema (mean grade) [6, 16]: 0.0 ± 0.00
- Assessment of erythema (mean grade) [6, 17]: 0.0 ± 0.00
- Assessment of erythema (mean grade) [6, 18]: 0.0 ± 0.00
- Assessment of erythema (mean grade) [6, 19]: 0.0 ± 0.00
- Assessment of erythema (mean grade) [6, 20]: 0.0 ± 0.00
- Assessment of erythema (mean grade) [6, 21]: 0.0 ± 0.00
- Assessment of erythema (mean grade) [6, 22]: 0.0 ± 0.00
- Assessment of erythema (mean grade) [6, 23]: 1.0 ± 0.00
- Assessment of erythema (mean grade) [6, 24]: 1.0 ± 0.00
- Assessment of erythema (mean grade) [6, 25]: 1.2 ± 0.11
- Assessment of erythema (mean grade) [6, 26]: 1.3 ± 0.17
- Assessment of erythema (mean grade) [6, 27]: 1.5 ± 0.22
- Assessment of erythema (mean grade) [6, 28]: 1.5 ± 0.22
- Assessment of erythema (mean grade) [6, 29]: 1.2 ± 0.40
- Assessment of erythema (mean grade) [6, 30]: 0.9 ± 0.15
- Assessment of erythema (mean grade) [6, 31]: 0.9 ± 0.15
- Assessment of erythema (mean grade) [6, 32]: 1.2 ± 0.17
- Body weight [7, 11]: 0.0 ± 0.00 g
- Body weight [7, 12]: 0.0 ± 0.00 g
- Body weight [7, 13]: 0.0 ± 0.00 g
- Body weight [7, 14]: 0.0 ± 0.00 g
- Body weight [7, 15]: 0.0 ± 0.00 g
- Body weight [7, 16]: 0.0 ± 0.00 g
- Body weight [7, 17]: 0.0 ± 0.00 g
- Body weight [7, 18]: 0.0 ± 0.00 g
- Body weight [7, 19]: 0.0 ± 0.00 g
- Body weight [7, 20]: 0.0 ± 0.00 g
- Body weight [7, 21]: 0.0 ± 0.00 g
- Body weight [7, 22]: 0.0 ± 0.00 g
- Body weight [7, 23]: 1.0 ± 0.00 g
- Body weight [7, 24]: 1.0 ± 0.00 g
- Body weight [7, 25]: 1.2 ± 0.11 g
- Body weight [7, 26]: 1.3 ± 0.17 g
- Body weight [7, 27]: 1.5 ± 0.22 g
- Body weight [7, 28]: 1.5 ± 0.22 g
- Body weight [7, 29]: 1.2 ± 0.40 g
- Body weight [7, 30]: 0.9 ± 0.15 g
- Body weight [7, 31]: 0.9 ± 0.15 g
- Body weight [7, 32]: 1.2 ± 0.17 g
- signs of toxicity [8]: none of the animals presented signs of toxicity
